Measurements as given in patent publication US20250145665A1, “MACROCYCLIC PEPTIDES USEFUL AS MODULATORS OF TNF ALPHA” (Bristol-Myers Squibb Company, priority 2023, published 2025).
Positions of bridges follow the written chain, without caps; N, C: chain ends. Non-standard residues stand in square brackets, D forms with d. Residues, ends and D or L forms follow the SMILES beside them. Ala(morpholin-4-yl) = N[C@@H](CN1CCOCC1)C(=O)O; Bip = N[C@@H](Cc1ccc(-c2ccccc2)cc1)C(=O)O; Val(3-OH) = CC(C)(O)[C@H](N)C(=O)O; Hyp = O=C(O)[C@@H]1C[C@@H](O)CN1; Tic = O=C(O)[C@@H]1Cc2ccccc2CN1; Sar = CNCC(=O)O

molecular target: TNFα (Homo sapiens, UniProt P01375); experiment: TNF-Induced HEK-Blue Assay; type: cell-based; details: HEK-Blue-CD40L cells, NF-kB-driven secreted alkaline phosphatase reporter; TNFα 0.5 ng/ml; 18 h; read-out: TNF induced HEK-Blue assay IC50 value
Sequence (P01375 77-233 limits assumed): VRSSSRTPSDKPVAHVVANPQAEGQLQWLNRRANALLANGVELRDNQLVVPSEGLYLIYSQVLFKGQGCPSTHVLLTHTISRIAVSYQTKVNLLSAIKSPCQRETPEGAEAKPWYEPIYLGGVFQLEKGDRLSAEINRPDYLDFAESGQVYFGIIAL

Row | Compound | IC50 [nM]
1 | CC(C)C[C@@H]1NC(=O)[C@H](Cc2ccc(O)cc2)NC(=O)[C@H](C(C)C)NC(=O)[C@@H]2CCCN2C(=O)[C@H](C(C)C)NC(=O)[C@H](CCCNC(=N)N)NC(=O)[C@H](CC(=O)O)NC(=O)[C@@H]2CCCN2C(=O)CN(C)C(=O)[C@H](Cc2ccc(-c3ccccc3)cc2)NC(=O)[C@H](Cc2ccc(-c3ccccc3)cc2)NC(=O)[C@H](C(C)(C)O)NC(=O)CSC[C@@H](C(=O)NCC(N)=O)NC1=O [Example 64] ({CH2CO}-[Val(3-OH)][Bip][Bip][Sar]PDRVPVYLCG-NH2; thioether N-13) | 200 to 2000
2 | CC(C)C[C@@H]1NC(=O)[C@H](CCCNC(=N)N)NC(=O)[C@H](C(C)C)NC(=O)[C@@H]2CCCN2C(=O)[C@H](CC(N)=O)NC(=O)[C@H](CCCNC(=N)N)NC(=O)[C@H](CC(=O)O)NC(=O)[C@@H]2CCCN2C(=O)CN(C)C(=O)[C@H](Cc2ccc(-c3ccccc3)cc2)NC(=O)[C@H](Cc2ccc(-c3ccccc3)cc2)NC(=O)[C@H](CN2CCOCC2)NC(=O)CSC[C@@H](C(=O)NCC(N)=O)NC1=O [Example 67] ({CH2CO}-[Ala(morpholin-4-yl)][Bip][Bip][Sar]PDRNPVRLCG-NH2; thioether N-13) | 200 to 2000
3 | CC(C)C[C@@H]1NC(=O)[C@H](CCCNC(=N)N)NC(=O)[C@H](C(C)C)NC(=O)[C@@H]2C[C@@H](O)CN2C(=O)[C@H](C(C)C)NC(=O)[C@H](CCCNC(=N)N)NC(=O)[C@H](CC(=O)O)NC(=O)[C@@H]2CCCN2C(=O)CN(C)C(=O)[C@H](Cc2ccc(-c3ccccc3)cc2)NC(=O)[C@H](Cc2ccc(-c3ccccc3)cc2)NC(=O)[C@H](CN2CCOCC2)NC(=O)CSC[C@@H](C(=O)NCC(N)=O)NC1=O [Example 70] ({CH2CO}-[Ala(morpholin-4-yl)][Bip][Bip][Sar]PDRV[Hyp]VRLCG-NH2; thioether N-13) | 200 to 2000

More lines, now with the values ahead:

Row | IC50 [nM] | Compound
4 | 50 to 200 | CC(C)C[C@@H]1NC(=O)[C@H](CCCNC(=N)N)NC(=O)[C@H](C(C)C)NC(=O)[C@@H]2CCCN2C(=O)[C@H](C(C)C)NC(=O)[C@H](CCCNC(=N)N)NC(=O)[C@H](CC(=O)O)NC(=O)[C@H](Cc2ccc(O)cc2)NC(=O)CN(C)C(=O)[C@H](Cc2ccc(-c3ccccc3)cc2)NC(=O)[C@H](Cc2ccc(-c3ccccc3)cc2)NC(=O)[C@H](C(C)(C)O)NC(=O)CSC[C@@H](C(=O)NCC(N)=O)NC1=O [Example 65] ({CH2CO}-[Val(3-OH)][Bip][Bip][Sar]YDRVPVRLCG-NH2; thioether N-13)
5 | < 50 | CC(C)C[C@@H]1NC(=O)[C@H](Cc2ccc(O)cc2)NC(=O)[C@H](C(C)C)NC(=O)[C@@H]2CCCN2C(=O)[C@H](C(C)C)NC(=O)[C@@H](CCCNC(=N)N)NC(=O)[C@H](CC(=O)O)NC(=O)[C@H](Cc2ccc(O)cc2)NC(=O)CN(C)C(=O)[C@H](Cc2ccc(-c3ccccc3)cc2)NC(=O)[C@H](Cc2ccc(-c3ccccc3)cc2)NC(=O)[C@H](CN2CCOCC2)NC(=O)CSC[C@@H](C(=O)NCC(N)=O)NC1=O [Example 68] ({CH2CO}-[Ala(morpholin-4-yl)][Bip][Bip][Sar]YD[dR]VPVYLCG-NH2; thioether N-13)
6 | < 50 | CC(C)C[C@@H]1NC(=O)[C@H](Cc2ccc(O)cc2)NC(=O)[C@H](C(C)C)NC(=O)[C@@H]2CCCN2C(=O)[C@H](C(C)C)NC(=O)[C@@H](CCCNC(=N)N)NC(=O)[C@H](CC(=O)O)NC(=O)[C@H](Cc2ccc(O)cc2)NC(=O)CN(C)C(=O)[C@H](Cc2ccc(-c3ccccc3)cc2)NC(=O)[C@H](Cc2ccc(-c3ccccc3)cc2)NC(=O)[C@H](C(C)(C)O)NC(=O)CSC[C@@H](C(=O)NCC(N)=O)NC1=O [Example 69] ({CH2CO}-[Val(3-OH)][Bip][Bip][Sar]YD[dR]VPVYLCG-NH2; thioether N-13)
7 | 50 to 200 | CC(C)C[C@@H]1NC(=O)[C@H](CCCNC(=N)N)NC(=O)[C@H](C(C)C)NC(=O)[C@@H]2Cc3ccccc3CN2C(=O)[C@H](C(C)C)NC(=O)[C@H](CCCNC(=N)N)NC(=O)[C@H](CC(=O)O)NC(=O)[C@@H]2CCCN2C(=O)CN(C)C(=O)[C@H](Cc2ccc(-c3ccccc3)cc2)NC(=O)[C@H](Cc2ccc(-c3ccccc3)cc2)NC(=O)[C@H](CN2CCOCC2)NC(=O)CSC[C@@H](C(=O)NCC(N)=O)NC1=O [Example 71] ({CH2CO}-[Ala(morpholin-4-yl)][Bip][Bip][Sar]PDRV[Tic]VRLCG-NH2; thioether N-13)
